Data as given in patent US20080280920A1, “Plasminogen Activator Inhibitor-1 Inhibitors” (priority 2005, published 2008).

Assays:
[1] = tested on: K-562; assay: NCI anticancer screen, K-562; assay type: cell-based, human; conditions: K-562, Leukemia, 48 h
[2] = tested on: A549/ATCC; assay: NCI anticancer screen, A549/ATCC; assay type: cell-based, human; conditions: Non-Small Cell Lung, 48 h
[3] = tested on: HCT-116; assay: NCI anticancer screen, HCT-116; assay type: cell-based, human; conditions: HCT-116, Colon, 48 h
[4] = tested on: M14; assay: NCI anticancer screen, M14; assay type: cell-based, human; conditions: M14, Melanoma, 48 h
[5] = tested on: COLO 205; assay: NCI anticancer screen, COLO 205; assay type: cell-based, human; conditions: COLO 205, Colon, 48 h
[6] = tested on: T-47D; assay: NCI anticancer screen, T-47D; assay type: cell-based, human; conditions: Breast, 48 h
[7] = tested on: MDA-MB-435; assay: NCI anticancer screen, MDA-MB-435; assay type: cell-based, human; conditions: MDA-MB-435, Breast, 48 h
[8] = tested on: OVCAR-3; assay: NCI anticancer screen, OVCAR-3; assay type: cell-based, human; conditions: OVCAR-3, Ovarian, 48 h
[9] = tested on: A498; assay: NCI anticancer screen, A498; assay type: cell-based, human; conditions: A498, Renal, 48 h
[10] = tested on: SR; assay: NCI anticancer screen, SR; assay type: cell-based, human; conditions: Leukemia, 48 h
[11] = tested on: SNB-19; assay: NCI anticancer screen, SNB-19; assay type: cell-based, human; conditions: SNB-19, CNS, 48 h
[12] = tested on: SF-295; assay: NCI anticancer screen, SF-295; assay type: cell-based, human; conditions: SF-295, CNS, 48 h
[13] = tested on: NCI-H522; assay: NCI anticancer screen, NCI-H522; assay type: cell-based, human; conditions: NCI-H522, Non-Small Cell Lung, 48 h
[14] = tested on: 786-0; assay: NCI anticancer screen, 786-0; assay type: cell-based, human; conditions: 786-0, Renal, 48 h
[15] = tested on: OVCAR-8; assay: NCI anticancer screen, OVCAR-8; assay type: cell-based, human; conditions: OVCAR-8, Ovarian, 48 h
[16] = tested on: HT29; assay: NCI anticancer screen, HT29; assay type: cell-based, human; conditions: HT29, Colon, 48 h
[17] = tested on: OVCAR-5; assay: NCI anticancer screen, OVCAR-5; assay type: cell-based, human; conditions: OVCAR-5, Ovarian, 48 h
[18] = tested on: ACHN; assay: NCI anticancer screen, ACHN; assay type: cell-based, human; conditions: Renal, 48 h
[19] = tested on: 60 different human cancer cell lines; assay: NCI in vitro anticancer screen (whole panel); assay type: cell-based
[20] = tested on: DU-145; assay: NCI anticancer screen, DU-145; assay type: cell-based, human; conditions: DU-145, Prostate, 48 h
[21] = tested on: SN12C; assay: NCI anticancer screen, SN12C; assay type: cell-based, human; conditions: 48 h, Renal
[22] = tested on: NCI/ADR-RES; assay: NCI anticancer screen, NCI/ADR-RES; assay type: cell-based, human; conditions: Breast, 48 h
[23] = tested on: NCI-H322M; assay: NCI anticancer screen, NCI-H322M; assay type: cell-based, human; conditions: Non-Small Cell Lung, 48 h
[24] = tested on: HCT-15; assay: NCI anticancer screen, HCT-15; assay type: cell-based, human; conditions: HCT-15, Colon, 48 h
[25] = tested on: NCI-H460; assay: NCI anticancer screen, NCI-H460; assay type: cell-based, human; conditions: NCI-H460, Non-Small Cell Lung, 48 h
[26] = tested on: SK-MEL-28; assay: NCI anticancer screen, SK-MEL-28; assay type: cell-based, human; conditions: SK-MEL-28, Melanoma, 48 h
[27] = tested on: SNB-75; assay: NCI anticancer screen, SNB-75; assay type: cell-based, human; conditions: SNB-75, CNS, 48 h
[28] = tested on: LOX IMVI; assay: NCI anticancer screen, LOX IMVI; assay type: cell-based, human; conditions: Melanoma, 48 h
[29] = tested on: NCI-H23; assay: NCI anticancer screen, NCI-H23; assay type: cell-based, human; conditions: NCI-H23, Non-Small Cell Lung, 48 h
[30] = tested on: SK-MEL-2; assay: NCI anticancer screen, SK-MEL-2; assay type: cell-based, human; conditions: SK-MEL-2, Melanoma, 48 h
[31] = tested on: KM12; assay: NCI anticancer screen, KM12; assay type: cell-based, human; conditions: KM12, Colon, 48 h
[32] = tested on: NCI-H226; assay: NCI anticancer screen, NCI-H226; assay type: cell-based, human; conditions: NCI-H226, Non-Small Cell Lung, 48 h
[33] = tested on: MDA-MB-231/ATCC; assay: NCI anticancer screen, MDA-MB-231/ATCC; assay type: cell-based, human; conditions: Breast, 48 h
[34] = tested on: RXF 393; assay: NCI anticancer screen, RXF 393; assay type: cell-based, human; conditions: RXF 393, Renal, 48 h
[35] = Homo sapiens, read-out: LC50 (the source's name)

## CCOC(=O)c1ccc(CNCc2cc(CN3CCN(c4ccccn4)CC3)c(O)c(OC)c2)cc1 [Compound Q012135T]
[1]; Homo sapiens, K562
  GI50: 3.4 µM
[1]; Homo sapiens, K562, read-out: LC50 (the source's name)
  CC50: 3.4 µM
[1]
  TGI: 14.1 µM
[2]; Homo sapiens
  GI50: 36.9 µM
  LC50: > 100 µM
[2]
  TGI: >100 µM
[3]
  TGI: >100 µM
[3]; Homo sapiens
  GI50: 18.6 µM
  LC50 (50% lethal concentration): > 100 µM
[4]; Homo sapiens
  GI50: 17.2 µM
[4]; [35]
  CC50: 64.8 µM
[4]
  TGI: 33.4 µM
[5]
  TGI: 36.3 µM
[5]; Homo sapiens
  GI50: 17 µM
[5]; [35]
  CC50: 77.6 µM
[6]
  TGI: 49.2 µM
[6]; Homo sapiens, T47D
  GI50: 14.7 µM
[6]; Homo sapiens, T47D, read-out: LC50 (the source's name)
  CC50: > 100 µM
[7]; Homo sapiens
  GI50: 16.9 µM
[7]; [35]
  CC50: 87.1 µM
[7]
  TGI: 38.4 µM
[8]; Homo sapiens
  GI50: 14.1 µM
[8]; [35]
  CC50: 61.2 µM
[8]
  TGI: 29.4 µM
[9]
  TGI: 51.4 µM
[9]; Homo sapiens
  GI50: 25.8 µM
[9]; [35]
  CC50: > 100 µM
[10]; Homo sapiens
  GI50: 4.18 µM
[10]; [35]
  CC50: 4.18 µM
[10]
  TGI: 20.6 µM
[11]; Homo sapiens
  GI50: 33.1 µM
[11]; [35]
  CC50: > 100 µM
[11]
  TGI: >100 µM
[12]; Homo sapiens
  GI50: 19.6 µM
[12]; [35]
  CC50: 73.5 µM
[12]
  TGI: 38.0 µM
[13]; Homo sapiens
  GI50: 15.5 µM
  LC50 (concentration killing 50% of cells): 81.7 µM
[13]
  TGI: 35.6 µM
[14]
  TGI: 31.0 µM
[14]; Homo sapiens
  GI50: 16.2 µM
[14]; [35]
  CC50: 59.2 µM
[15]; Homo sapiens
  GI50: 22.1 µM
[15]; [35]
  CC50: > 100 µM
[15]
  TGI: 49.1 µM
[16]
  TGI: 31.8 µM
[16]; Homo sapiens, HT-29
  GI50: 17.1 µM
[16]; Homo sapiens, HT-29, read-out: LC50 (the source's name)
  CC50: 59 µM
[17]; Homo sapiens
  GI50: 23.4 µM
[17]; [35]
  CC50: 91.7 µM
[17]
  TGI: 46.3 µM
[18]; Homo sapiens
  GI50: 29.9 µM
[18]; [35]
  CC50: > 100 µM
[18]
  TGI: >100 µM
[19]; NCI screen, 48 h
  growth and proliferation of human primary cancer cell-lines (in words): inhibited growth and proliferation
[19]; low micromolar concentrations, leukemia, melanoma, colon and central nervous system cell-lines
  cytostatic / cytotoxic effects on human cancer cell-lines (in words): cytostatic and cytotoxic effects
[20]
  TGI: 36.5 µM
[20]; Homo sapiens
  GI50: 17 µM
[20]; [35]
  CC50: 78.4 µM
[21]; Homo sapiens
  GI50: 21.7 µM
[21]; [35]
  CC50: > 100 µM
[21]
  TGI: 55.7 µM
[22]
  TGI: 96.9 µM
[22]; Homo sapiens
  GI50: 27.6 µM
[22]; [35]
  CC50: > 100 µM
[23]; Homo sapiens
  GI50: 33.8 µM
[23]; [35]
  CC50: > 100 µM
[23]
  TGI: >100 µM
[24]
  TGI: >100 µM
[24]; Homo sapiens
  GI50: 26.9 µM
[24]; [35]
  CC50: > 100 µM
[25]; Homo sapiens
  GI50: 20.2 µM
[25]; [35]
  CC50: 70.4 µM
[25]
  TGI: 37.7 µM
[26]; Homo sapiens
  GI50: 15.1 µM
[26]; [35]
  CC50: 57.4 µM
[26]
  TGI: 29.5 µM
[27]; Homo sapiens
  GI50: 17.6 µM
  LC50 (concentration killing 50% of cells): 59.2 µM
[27]
  TGI: 32.2 µM
[28]; Homo sapiens
  GI50: 15.8 µM
  LC50 (concentration giving 50% net cell kill): 63.4 µM
[28]
  TGI: 31.7 µM
[29]; Homo sapiens
  GI50: 34.2 µM
[29]; [35]
  CC50: > 100 µM
[29]
  TGI: >100 µM
[30]; Homo sapiens
  GI50: 17.2 µM
[30]; [35]
  CC50: 79.5 µM
[30]
  TGI: 36.9 µM
[31]; Homo sapiens
  GI50: 21 µM
[31]; [35]
  CC50: 73.3 µM
[31]
  TGI: 39.2 µM
[32]; Homo sapiens
  GI50: 19.8 µM
  LC50 (concentration giving 50% net cell kill): 91.5 µM
[32]
  TGI: 42.6 µM
[33]
  TGI: 38.1 µM
[33]; Homo sapiens
  GI50: 18.1 µM
[33]; [35]
  CC50: 80.5 µM
[34]; Homo sapiens
  GI50: 18.8 µM
[34]; [35]
  CC50: 84.5 µM
[34]
  TGI: 39.9 µM
